Measurements published in patent US10450288B2, “Hydroxy formamide derivatives and their use” (GLAXOSMITHKLINE INTELLECTUAL PROPERTY (NO.2) LIMITED, priority 2014, dated 2019).

Key:
[1] = system: human cardiac fibroblasts; assay: Cell-based inhibition assay of generation of procollagen I C-terminal propeptide (PICP), PICP ELISA; details: Cardiac fibroblast; human cardiac fibroblasts, crowding media, 24 to 48 hr, PICP ELISA of media; read-out: pIC50, PICP cellular inhibition assay (converted)
Outline: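 Cardiac fibroblasts (passage ≤6) treated 24–48 h at 37 °C with compounds in ficoll crowding medium containing 100 μM ascorbic acid, DMSO <0.3%. PICP secreted into the medium was quantified by ELISA, normalised to untreated controls and fitted to log(inhibitor)–response to give pIC50.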

[2] = system: human cardiac fibroblasts; assay: Cell-based inhibition assay of mature collagen deposition (immunostaining); details: Cardiac fibroblast; human cardiac fibroblasts, crowding media, 24 to 48 hr, collagen I immunostaining normalized to nuclei; read-out: pIC50, mature collagen cellular inhibition assay (converted)
Description: Cell-Based Inhibition Assay of Generation of Procollagen I C-Terminal Propeptide (PICP) and Mature Collagen:
An adaptation of the collagen deposition assay described by Chen, C. Z. C., et al., British Journal of Pharmacology, 2009, 158, 1196-1209 was used to examine effect of compounds on procollagen I processing and collagen deposition. In the adapted assay, human cardiac fibroblasts were utilized. Processing of procollagen I was determined by a PICP ELISA assay and deposition of mature collagen was determined by immunostaining.
Human cardiac fibroblasts were cultured and maintained until passage 6 in FGM-3 media (Lonza, #CC-3132) in a 37° C. humidified incubator with 5% CO2. They were then seeded in 96-well black wall, clear bottom plates at 10,000 to 15,000 cells per well in eagle's minimum essential media (EMEM, ATCC #30-2003) containing 10% fetal bovine serum (FBS, Life Technologies #10082147), 1% Glutamax (Life Technologies #35050061) and 1% Penicillin and Streptomycin (Life Technologies #15070063). These cultures were placed in 37° C. incubator. The next day, media were removed by aspiration and cells were rinsed with phosphate buffered saline. Crowding media (also called ficoll media) was prepared by adding 112.5 mg/ml of ficoll70 and 75 mg/ml ficoll400 (GE healthcare #17-0310-10 and 17-0300-10, respectively), 100 μM ascorbic acid, 1% Glutamax and 1% Penicillin and Streptomycin to EMEM media. Test compounds (dissolved in DMSO) were diluted into crowding media and then added to the cells. Final concentration of DMSO in crowding media was less than 0.3%. Cells were treated for 24 to 48 hr in a 37° C. incubator. At the end of the treatment period, cell media were collected. The level of PICP in the media were determined by a PICP ELISA assay (Quidel #8003) following the manufacturer's protocol. Potencies of test compounds were calculated by fitting PICP levels, relative to untreated controls, to log (inhibitor) vs. response equation using Graphpad Prism software 5.0 and expressed as pIC50.
For some compounds, deposition of mature collagen was measured by immunostaining in addition to PICP levels. At the end of the treatment period, cells on culture plate were fixed with 100% methanol (prechilled to −20° C.) for 10 min. Then the cells were immunostained with mouse anti-mature collagen I antibody (1:500 dilution, Sigma#C2456), anti-mouse secondary antibody Alexa647 (1:500 dilution, Invitrogen#A21236) and Hoechst (for nuclei, 2 μg/ml, Invitrogen#H3596). Fluorescent image acquisition was done using the Operetta High Content Imaging system (Perkin Elmer). For each image field, the intensity of mature collagen staining was normalized with the number of nuclei. Normalized collagen levels were used to calculate the potency of test compounds with Graphpad Prism software, as described above.

Row | Compound | IC50 [1] [nM] | IC50 [2] [nM]
1 | CCCCC[C@@H](C(=O)NCNC(=O)c1ccc(-c2ccc(CC(=O)N[C@@H](CC(=O)O)C(=O)O)c(OCC)c2)o1)[C@@H](CC)N(O)C=O [Example 75, (S)-2-(2-(2-ethoxy-4-(5-((((R)-2-((R)-1-(N-hydroxyformamido)propyl)heptanamido)methyl)carbamoyl)furan-2-yl)phenyl)acetamido) succinic acid] | < 3980 | < 1000
2 | CCCCC[C@@H](C(=O)NCNC(=O)c1ccc(-c2cc(OCC)cc(C(=O)N[C@@H](CC(=O)O)C(=O)O)c2)o1)[C@@H](CC)N(O)C=O [Example 77, (S)-2-(3-ethoxy-5-(5-((((R)-2-((R)-1-(N-hydroxyformamido)propyl)heptanamido)methyl)carbamoyl)furan-2-yl)benzamido) succinic acid] | < 3980 | < 1000
3 | CCCCC[C@@H](C(=O)NCNC(=O)c1ccc(-c2cccc(C3(C(=O)O)CC3)c2)o1)[C@@H](CC)N(O)C=O [Example 80, 1-(3-(5-((((R)-2-((R)-1-(N-hydroxyformamido)propyl)heptanamido)methyl)carbamoyl)furan-2-yl)phenyl) cyclopropanecarboxylic acid] | < 3980 | < 1000
4 | CCCCC[C@@H](C(=O)NCNC(=O)c1ccc(-c2cc(OCC)cc(C(=O)O)c2O)o1)[C@@H](CC)N(O)C=O [Example 81, 5-ethoxy-2-hydroxy-3-(5-((((R)-2-((R)-1-(N-hydroxy-formamido)propyl)heptanamido)methyl)carbamoyl)furan-2-yl)benzoic acid] | < 3980 | < 1000
5 | CCCCC[C@@H](C(=O)NCNC(=O)c1ccc(-c2cc(OCCC)cc(C(=O)O)c2)o1)[C@@H](CC)N(O)C=O [Example 82] | < 3980 | < 1000
6 | CCCCC[C@@H](C(=O)NCNC(=O)c1ccc(-c2ccc(C(=O)N(CC(=O)O)CC(=O)O)c(OCC)c2)o1)[C@@H](CC)N(O)C=O [Example 86, 2,2′-((2-ethoxy-4-(5-((((R)-2-((R)-1-(N-hydroxy-formamido)propyl)heptanamido)methyl)carbamoyl)furan-2-yl)benzoyl)azanediyl) diacetic acid] | < 3980 | < 1000
7 | CCCCC[C@@H](C(=O)NCNC(=O)c1ccc(-c2cc(OCC)cc(C(=O)N[C@@H](CCC(=O)O)C(=O)O)c2)o1)[C@@H](CC)N(O)C=O [Example 93, (S)-2-(3-ethoxy-5-(5-((((R)-2-((R)-1-(N-hydroxy-formamido)propyl)heptanamido)methyl)carbamoyl)furan-2-yl)benzamido) pentanedioic acid] | < 3980 | < 1000
8 | CCCCC[C@@H](C(=O)NCNC(=O)c1ccc(-c2cc(OCC)cc(P(=O)(O)O)c2)o1)[C@@H](CC)N(O)C=O [Example 96, (3-ethoxy-5-(5-((((R)-2-((R)-1-(N-hydroxyformamido)propyl)heptanamido)methyl)carbamoyl)furan-2-yl)phenyl)phosphonic acid] | < 3980 | < 1000
9 | CCCCC[C@@H](C(=O)NCNC(=O)c1ccc(-c2ccc(P(=O)(O)O)c(OCC)c2)o1)[C@@H](CC)N(O)C=O [Example 98, (2-ethoxy-4-(5-((((R)-2-((R)-1-(N-hydroxyformamido)propyl)heptanamido)methyl)carbamoyl)furan-2-yl)phenyl)phosphonic acid] | < 3980 | < 1000
10 | CCCCC[C@@H](C(=O)NCNC(=O)c1ccc(-c2cc(CP(=O)(O)O)cc(OCC)c2)o1)[C@@H](CC)N(O)C=O [Example 99, (3-ethoxy-5-(5-((((R)-2-((R)-1-(N-hydroxy-formamido)propyl)heptanamido)methyl)carbamoyl)furan-2-yl)benzyl) phosphonic acid] | < 3980 | < 1000
11 | CCCCC[C@@H](C(=O)NCNC(=O)c1ccc(-c2cc(OCC)c(F)c(C(=O)O)c2)o1)[C@@H](CC)N(O)C=O [Example 111, 3-ethoxy-2-fluoro-5-(5-((((R)-2-((R)-1-(N-hydroxy-formamido)propyl)heptanamido)methyl)carbamoyl)furan-2-yl)benzoic acid] | < 3980 | < 1000
